Test results published in US20240417410A1, “TRICYCLIC COMPOUNDS FOR THE TREATMENT OF CANCER” (Hoffmann-La Roche Inc., priority 2023, published 2024).

What was measured:
[1] = tested on: AGS cells (KRAS G12D); experiment: Cell viability assay (Cell Counting Kit-8, 3-day); format: cell-based, human; conditions: Homo sapiens, 72 h, 72 hrs incubation
Experimental: (§1) The purpose of this cellular assay was to determine the effects of test compounds on the proliferation of human cancer cell lines NCI-H358 (ATCC-CRL5807) cells, AGS (ATCC-CRL-1739) cells, SW620 (ATCC-CCL-227) over a 3-day treatment period by quantifying the amount of NADPH present at endpoint using Cell Counting Kit-8.
(§2) Cells were seeded at 5,000 cells/well (NCI-H358), 2,000 cells/well (AGS) 2,000 cells/well (SW620) in 96-well assay plates (Corning-3699) and incubated overnight. On the day of the assay, diluted compounds were then added in a final concentration of 0.5% DMSO. After 72 hrs incubation, a tenth of the volume of cell counting kit 8 (Dnjindo-CK04) was added into each well. Read the signal (OD450 minus OD650) using EnVision after 2 hrs incubation. IC50 was determined by fitting a 4-parameter sigmoidal concentration response model.

[2] = tested on: NCI-H358 cells (KRAS G12C); experiment: Cell viability assay (Cell Counting Kit-8, 3-day); format: cell-based, human; conditions: Homo sapiens, NCI-H358, 72 h, NCI-H358, 72 hrs incubation
Experimental: as §1, §2

[3] = tested on: SW620 cells (KRAS G12V); experiment: Cell viability assay (Cell Counting Kit-8, 3-day); format: cell-based, human; conditions: Homo sapiens, SW-620; SW620, 72 hrs incubation
Experimental: as §1, §2

[4] = biological target: KRAS G12C-BRAF complex (Homo sapiens (Human), UniProt P01116+P62937, G12C); experiment: KRAS-BRAF with CYPA (500 nM) interaction assay (TR-FRET, Example 136); format: biochemical; conditions: KRAS G12C-BRAF disruption
Chain of KRAS G12C-BRAF complex (P01116-2 other isoform, or with tags, fused parts or gaps G12C): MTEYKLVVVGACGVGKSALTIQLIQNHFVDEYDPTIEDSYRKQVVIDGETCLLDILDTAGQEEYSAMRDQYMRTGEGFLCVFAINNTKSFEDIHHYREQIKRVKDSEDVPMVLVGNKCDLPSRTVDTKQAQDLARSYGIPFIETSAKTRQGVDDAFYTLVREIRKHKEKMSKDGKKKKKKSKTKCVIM
Chain of KRAS G12C-BRAF complex (P62937 whole entry): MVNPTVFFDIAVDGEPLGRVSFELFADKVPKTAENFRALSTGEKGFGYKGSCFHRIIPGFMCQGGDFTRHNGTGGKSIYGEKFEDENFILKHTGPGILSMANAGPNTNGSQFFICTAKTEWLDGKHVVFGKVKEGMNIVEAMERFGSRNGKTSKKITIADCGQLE
Experimental: In this example, TR-FRET was also used to measure the compound or compound-CYPA dependent disruption of the KRAS G12C-BRAF complex. This protocol was also used to measure disruption of KRAS G12D or KRAS G12V binding to BRAF by a compound of the invention, respectively. In assay buffer containing 25 mM HEPES PH=7.4 (4-(2-hydroxyethyl)-1-piperazineethanesulfonic acid, Thermo, 15630080), 0.002% Tween20, 0.1% BSA, 100 mM NaCl, 5 mM MgCl2, 10 μM GMPPNP (Guanosine 5′-[β,γ-imido]triphosphate trisodium salt hydrate, Sigma, G0635), […] 384-well assay plate at final concentrations of 50 nM, 6.25 nM and 1 nM, respectively. Compound was present in plate wells as a 16-point 3-fold dilution series starting at a final concentration of 10 μM and incubated for 3 hours. A mixture of MAb Anti-6His-XL665 (Cisbio, 61HISXLB) and Mab anti-GST-TB cryptate (Cisbio, 61GSTTLB) was then added at a final concentration of 6.67 nM and 0.21 nM, respectively, and the plate was incubated for an additional 1.5 hours. TR-FRET signal was read on a PHERstar FSX microplate reader (Ex320 nm, Em 665/615 nm). Compounds that facilitate disruption of the KRAS-BRAF complex were identified as those eliciting a decrease in the TR-FRET ratio relative to DMSO control wells.

[5] = tested on: phosphorylation of ERK, KRAS G12C in NCI-H358 cells; experiment: pERK inhibition assay; format: cell-based; conditions: Homo sapiens, NCI-H358, 4 h
Experimental: (§3) This assay is to measure the ability of test compounds in inhibiting the phosphorylation of ERK, the downstream signaling of KRAS G12C in NCI-H358 cells, KRAS G12D in AGS cells, and KRAS G12V in SW620. NCI-H358 (ATCC-CRL5807) cells, AGS (ATCC-CRL-1739) cells, SW620 (ATCC-CCL-227) cells were all grown and maintained using RPMI-1640 medium (Thermo Fisher Scientific) with 10% fetal bovine serum and 1% penicillin/streptomycin. On the day prior to compound addition, cells were plated in tissue culture-treated 96 well plates (Corning-3699) at a density of 30,000 cell/well, 20,000 cell/well, 30,000 cell/well for NCI-H358, AGS and SW620 respectively, and allowed for attachment overnight. Diluted compounds were then added in a final concentration of 0.5% DMSO. After 4 hours of incubation, the medium was removed, 100 μL of 4% formaldehyde was added, and the assay plates were incubated at room temperature for 20 minutes. The plates were then washed once with phosphate buffered saline (PBS), and permeabilized with 100 μL of chilled methanol for 10 minutes. Non-specific antibody binding to the plates was blocked using 50 μL 1X BSA blocking buffer (Thermo-37520, 10-fold dilution by Phosphate-Buffered Saline Tween (PBST) for at least 1 hour at room temperature.
(§4) The amount of phosphor-ERK was determined using an antibody specific for phosphorylated form of ERK. Primary antibody (PERK, CST-4370, Cell Signaling Technology) was diluted 1:300 in blocking buffer, with 50 μL aliquoted to each well, and incubated overnight at 4° C. Cells was washed five times for 5 minutes with PBST. Secondary antibody (HRP-linked anti-rabbit IgG, CST-7074, Cell Signaling Technology) was diluted 1:1000 in blocking buffer, and 50 μL was added to each well and incubated 1-2 hrs at room temperature. Cells was washed […] for 5 minutes with PBST, 100 μL TMB ELISA substrate (abcam-ab171523) were added and gently shake for 20 minutes. 50 μL stop solution (abcam-ab 171529) were added, and then read the signal (OD450) by EnVision.
(§5) IC50 was determined by fitting a 4-parameter sigmoidal concentration response model.

[6] = tested on: phosphorylation of ERK, KRAS G12D in AGS cells; experiment: pERK inhibition assay; format: cell-based; conditions: Homo sapiens, AGS, 4 h
Experimental: as §3, §4, §5

[7] = tested on: phosphorylation of ERK, KRAS G12V in SW620; experiment: pERK inhibition assay; format: cell-based; conditions: Homo sapiens, SW-620, 4 h, SW620 cells
Experimental: as §3, §4, §5

## CO[C@@H](C)c1ncc(N2CCN(C)CC2)cc1-c1c2c3cc(cc4c3n1CCC4)-c1csc(n1)C[C@H](NC(=O)[C@@H]1C[C@H]1c1ncccn1)C(=O)N1CCC[C@H](N1)C(=O)OCC(C)(C)C2 (atropisomer, axis not shown) [Example 81, (1R,2R)-N-[(7S,13S)-20-[2-[(1S)-1-methoxyethyl]-5-(4-methylpiperazin-1-yl)-3-pyridyl]-17,17-dimethyl-8,14-dioxo-15-oxa-4-thia-9,21,30,31-tetrazahexacyclo[23.3.1.1^2,5.1^9,13.0^19,27.0^21,26]hentriaconta-1 (28),2,5 (31),19,25 (29),26-hexaen-7-yl]-2-pyrimidin-2-yl-cyclopropanecarboxamide]
[1]
  IC50: 23.4 nM
[2]
  IC50: 5.3 nM
[3]
  IC50: 0.8 nM
[4]
  IC50: 30.5 nM
[5]
  IC50: 1.6 nM
[6]
  IC50: 6.5 nM
[7]
  IC50: 1.2 nM

## CO[C@@H](C)c1ncc(N2CCN(CC(F)(F)F)CC2)cc1-c1c2c3cc(cc4c3n1CCC4)-c1csc(n1)C[C@H](NC(=O)[C@H]1C[C@@H]1C)C(=O)N1CCC[C@H](N1)C(=O)OCC(C)(C)C2 (atropisomer, axis not shown; (M)) [Example 3, (1S,2S)-N-[(7S,13S)-(20M)-20-[2-[(1S)-1-methoxyethyl]-5-[4-(2,2,2-trifluoroethyl)piperazin-1-yl]-3-pyridyl]-17,17-dimethyl-8,14-dioxo-15-oxa-4-thia-9,21,30,31-tetrazahexacyclo[23.3.1.1^2,5.1^9,13.0^19,27.0^21,26]hentriaconta-1 (28),2,5 (31), 19,25 (29),26-hexaen-7-yl]-2-methyl-cyclopropanecarboxamide]
[4]
  IC50: 31.4 nM
[5]
  IC50: 5.1 nM
[6]
  IC50: 24.3 nM
[7]
  IC50: 3.6 nM

## CO[C@@H](C)c1ncc(N2CCOCC2)cc1-c1c2c3cc(cc4c3n1[C@@H](C)CO4)-c1csc(n1)C[C@H](NC(=O)[C@H]1C[C@@H]1C)C(=O)N1CCC[C@H](N1)C(=O)OCC(C)(C)C2 (atropisomer, axis not shown; (M)) [Example 53, (1S,2S)-N-[(7S,13S,22S)-(20M)-20-[2-[(1S)-1-methoxyethyl]-5-morpholino-3-pyridyl]-17,17,22-trimethyl-8,14-dioxo-15,24-dioxa-4-thia-9,21,30,31-tetrazahexacyclo[23.3.1.1^2,5.1^9,13.0^19,27.0^21,26]hentriaconta-1 (28),2,5 (31), 19,25 (29),26-hexaen-7-yl]-2-methyl-cyclopropanecarboxamide]
[4]
  IC50: 65.7 nM
[5]
  IC50: 21.2 nM
[6]
  IC50: 176 nM
[7]
  IC50: 24.5 nM

## CO[C@@H](C)c1ncc(N2CCN(C)CC2)cc1-c1c2c3cc(cc4c3n1CCC4)-c1csc(n1)C[C@H](NC(=O)[C@H]1CC[C@](C)(O)CC1)C(=O)N1CCC[C@H](N1)C(=O)OCC(C)(C)C2 (atropisomer, axis not shown; (M)) [Example 71, trans-4-hydroxy-N-[(7S,13S)-(20M)-20-[2-[(1S)-1-methoxyethyl]-5-(4-methylpiperazin-1-yl)-3-pyridyl]-17,17-dimethyl-8,14-dioxo-15-oxa-4-thia-9,21,30,31-tetrazahexacyclo[23.3.1.1^2,5.1^9,13.0^19,27.0^21,26]hentriaconta-1 (28),2,5 (31), 19,25 (29),26-hexaen-7-yl]-4-methyl-cyclohexanecarboxamide]
[4]
  IC50: 28.9 nM
[5]
  IC50: 3.6 nM
[6]
  IC50: 51.5 nM
[7]
  IC50: 6.5 nM

## CO[C@@H](C)c1ncc(N2CCN(C)CC2)cc1-c1c2c3cc(cc4c3n1CCC4)-c1csc(n1)C[C@H](NC(=O)C1CCOCC1)C(=O)N1CCC[C@H](N1)C(=O)OCC(C)(C)C2 (atropisomer, axis not shown; (M)) [Example 77, N-[(7S,13S)-(20M)-20-[2-[(1S)-1-methoxyethyl]-5-(4-methylpiperazin-1-yl)-3-pyridyl]-17,17-dimethyl-8,14-dioxo-15-oxa-4-thia-9,21,30,31-tetrazahexacyclo[23.3.1.1^2,5.1^9,13.0^19,27.0^21,26]hentriaconta-1 (28),2,5 (31),19,25 (29),26-hexaen-7-yl]tetrahydropyran-4-carboxamide]
[4]
  IC50: 41.8 nM
[5]
  IC50: 4.4 nM
[6]
  IC50: 26.1 nM
[7]
  IC50: 4 nM

## CO[C@@H](C)c1ncc(N2CCN(C)CC2)cc1-c1c2c3cc(cc4c3n1CCC4)-c1csc(n1)C[C@H](NC(=O)C1CCC(F)(F)C1)C(=O)N1CCC[C@H](N1)C(=O)OCC(C)(C)C2 (stereo partly drawn) [Example 65, 3,3-difluoro-N-[(7S,13S)-(20M)-20-[2-[(1S)-1-methoxyethyl]-5-(4-methylpiperazin-1-yl)-3-pyridyl]-17,17-dimethyl-8,14-dioxo-15-oxa-4-thia-9,21,30,31-tetrazahexacyclo[23.3.1.1^2,5.1^9,13.0^19,27.0^21,26]hentriaconta-1 (28),2,5 (31), 19,25 (29),26-hexaen-7-yl]cyclopentanecarboxamide]
[4]
  IC50: 51.3 nM
[5]
  IC50: 2.3 nM
[6]
  IC50: 31.7 nM
[7]
  IC50: 5 nM

## CO[C@@H](C)c1ncc(N2CCN(C)CC2)cc1-c1c2c3cc(cc4c3n1CCC4)-c1csc(n1)C[C@H](NC(=O)C13CC(CO1)C3)C(=O)N1CCC[C@H](N1)C(=O)OCC(C)(C)C2 [Example 66, N-[(7S,13S)-(20M)-20-[2-[(1S)-1-methoxyethyl]-5-(4-methylpiperazin-1-yl)-3-pyridyl]-17,17-dimethyl-8,14-dioxo-15-oxa-4-thia-9,21,30,31-tetrazahexacyclo[23.3.1.1^2,5.1^9,13.0^19,27.0^21,26]hentriaconta-1 (28),2,5 (31), 19,25 (29),26-hexaen-7-yl]-2-oxabicyclo[2.1.1]hexane-1-carboxamide]
[4]
  IC50: 50.5 nM
[5]
  IC50: 2.6 nM
[6]
  IC50: 40.2 nM
[7]
  IC50: 3.3 nM

## CO[C@@H](C)c1ncc(N2CCN(C)CC2)cc1-c1c2c3cc(cc4c3n1CCC4)-c1csc(n1)C[C@H](NC(=O)C13C4CC1CC3C4)C(=O)N1CCC[C@H](N1)C(=O)OCC(C)(C)C2 (stereo partly drawn) [Example 72, N-[(7S,13S)-(20M)-20-[2-[(1S)-1-methoxyethyl]-5-(4-methylpiperazin-1-yl)-3-pyridyl]-17,17-dimethyl-8,14-dioxo-15-oxa-4-thia-9,21,30,31-tetrazahexacyclo[23.3.1.1^2,5.1^9,13.0^19,27.0^21,26]hentriaconta-1 (28),2,5 (31), 19,25 (29),26-hexaen-7-yl]tricyclo[3.1.1.0^3,6]heptane-6-carboxamide]
[4]
  IC50: 31.5 nM
[5]
  IC50: 2.3 nM
[6]
  IC50: 41.5 nM
[7]
  IC50: 4.8 nM
